Here are results for six compounds from patent publication US9073882B2, “Inhibitors of the renal outer medullary potassium channel” (Merck Sharp & Dohme Corp., priority 2010, dated 2015).

One assay addresses hROMK1 (Kir1.1) (Homo sapiens (Human), UniProt P48048). Nature of the assay: ^86Rb^+ Efflux Assay. Type of assay: cell-based. As to conditions: CHO-DHFR- cells stably expressing hROMK1 (Kir1.1).
The next assay has as its target hROMK (hKir1.1) (Homo sapiens (Human), UniProt P48048). Briefly: Thallium Flux Assay. It is filed as cell-based. To be noted: Table 2; HEK293 cells stably expressing hROMK (hKir1.1).
The mark [1] stands for this setting: value in parentheses at the end of each Example, read-out: IC50 in the ^86Rb^+ Efflux Assay.

pIC50: −log10 of the molar value. Read-outs that look alike come from different tables or passages of the source.

Sequence of hROMK (hKir1.1) (P48048 whole entry): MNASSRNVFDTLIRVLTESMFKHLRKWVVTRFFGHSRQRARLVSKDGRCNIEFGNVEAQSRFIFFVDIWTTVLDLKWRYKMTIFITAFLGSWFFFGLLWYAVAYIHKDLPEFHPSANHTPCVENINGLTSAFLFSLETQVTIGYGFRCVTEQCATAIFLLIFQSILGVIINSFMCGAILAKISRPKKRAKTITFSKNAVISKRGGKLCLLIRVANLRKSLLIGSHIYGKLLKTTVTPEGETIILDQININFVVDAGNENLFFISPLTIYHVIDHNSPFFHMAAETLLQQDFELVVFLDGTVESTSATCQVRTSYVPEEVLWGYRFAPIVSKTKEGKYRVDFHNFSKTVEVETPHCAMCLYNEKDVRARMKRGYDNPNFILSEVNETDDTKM
Sequence of hROMK1 (Kir1.1) (P48048 whole entry): as above

Regarding `C[C@H]1Cc2cc(CCN3CCN(CCc4ccc5c(c4)C[C@H](C)OC5=O)CC3)ccc2C(=O)O1` [Example 58, (3S,3′S)-6,6′-(Piperazine-1,4-diyldiethane-2,1-diyl)bis(3-methyl-3,4-dihydro-1H-isochromen-1-one)], the pIC50 (commonly the IC50 on a negative log10 scale, so that one unit is a factor of ten) was 6.19 on hROMK1 (Kir1.1) (setting [1]) and 6.62 against hROMK (hKir1.1).
In the same order, the values of `Cc1c(CCN2CCN(CCc3ccc(C#N)c(F)c3Cl)CC2)ccc2c1COC2=O` [Example 86, 3-Chloro-2-fluoro-4-(2-{4-[2-(4-methyl-1-oxo-1,3-dihydro-2-benzofuran-5-yl)ethyl]piperazin-1-yl}ethyl)benzonitrile] are 7.11 and 7.77.
`COc1c(C#N)ccc(CCN2CCN(CCc3ccc4c(c3C)COC4=O)CC2)c1Cl` [Example 88, 3-Chloro-2-methoxy-4-(2-{4-[2-(4-methyl-1-oxo-1,3-dihydro-2-benzofuran-5-yl)ethyl]piperazin-1-yl}ethyl)benzonitrile]: the pIC50 on hROMK1 (Kir1.1) (setting [1]) is 7.08.
With `Cc1c(CCN2CCN(CC3CCOc4cc(C#N)ccc43)CC2)ccc2c1COC2=O` (stereo not shown) [Example 91, 4-({4-[2-(4-Methyl-1-oxo-1,3-dihydro-2-benzofuran-5-yl)ethyl]piperazin-1-yl}methyl)-3,4-dihydro-2H-chromene-7-carbonitrile], the negative logarithm of the IC50 (pIC50) on hROMK1 (Kir1.1) (setting [1]) was 6.74.
Regarding `Cc1c(C(C)CN2CCN(CC(C)c3ccc4c(c3C)COC4=O)CC2)ccc2c1COC2=O` (stereo not shown) [Example 93], the pIC50 on hROMK1 (Kir1.1) (setting [1]) was 6.66.
For the compound `Cc1c(CCN2CCN(CC(C)c3ccc4c(c3C)COC4=O)CC2)ccc2c1COC2=O` (stereo not shown) [Example 94, 4-Methyl-5-(1-(4-(2-(4-methyl-1-oxo-1,3-dihydroisobenzofuran-5-yl)ethyl)piperazin-1-yl)propan-2-yl)isobenzofuran-1(3H)-one], the pIC50 was 7.47 at hROMK1 (Kir1.1) (setting [1]); 7.47 on hROMK1 (Kir1.1) (Table 1, read-out: ^86Rb^+ Efflux Assay IC50); 7.92 on hROMK (hKir1.1).
